Patent publication US20230093073A1, “METHODS AND COMPOSITIONS FOR COMMUNITY-BASED SCREENING OF POLYMICROBIAL INFECTIONS” (REGENTS OF THE UNIVERSITY OF MINNESOTA, priority 2020, published 2023)

Tests used:
[1] = system: P. aeruginosa; experiment: Antibiotic susceptibility testing (MIC) of P. aeruginosa isolates from CF sputum in LB; format: cell-based, Pseudomonas aeruginosa; details: isolates from adult CF sputum, nutrient-rich LB, aerobic, 37° C., 24 h
Protocol: (§1) To further test this idea under clinically relevant conditions, sputum was collected from adult CF patients and isolated P. aeruginosa from each sample (FIG. 1B). Using a panel of widely used CF antibiotics (tobramycin, aztreonam, levofloxacin, piperacillin-tazobactam) and others lacking conventional activity against P. aeruginosa (trimethoprim-sulfamethoxazole, metronidazole), MICs for each isolate were determined under nutrient-rich conditions (akin to standard AST procedures). Concurrently, enrichment culturing was performed to isolate anaerobic mucin-degrading bacteria from each sample (10) and antibiotic MICs were similarly determined. Finally, small aliquots of remaining sputa were diluted in buffer and split between culture tubes containing mucin as the sole carbon source, 1% agarose, and one of the antibiotics listed above. Using these cultures in which P. aeruginosa and anaerobic mucin-degraders were co-dependent on mucin utilization, how co-operative growth affected antibiotic sensitivity relative to independent culture was interrogated.
Pseudomonas aeruginosa isolation. 100 μL of sputum was streaked onto Pseudomonas isolation agar and incubated at 37° C. for 72 hours. A single isolate from each sample was screened by PCR to confirm identity and stored in 30% glycerol at −80° C.
Antibiotic susceptibility testing. For anaerobic AST, 5 μL of enrichment culture was added to each well of microtiter plate containing MMM supplemented with gradients of seven antibiotics (aztreonam 0-500 μg/mL; doxycycline, 0-25 μg/mL; levofloxacin, 0-25 μg/mL; metronidazole, 0-25 μg/mL; piperacillin/tazobactam, 0-25 μg/mL; tobramycin, 0-500 μg/mL; trimethoprim/sulfamethoxazole, 0-25 μg/mL). Plates were wrapped in parafilm and incubated anaerobically at 37° C. for 72 h. For P. aeruginosa, isolates were grown in lysogeny broth (LB) to an OD600 of 0.5. 5 μL was then added to a similar plate containing LB as the base medium and incubated aerobically at 37° C. for 24 h. Plates were resuspended by pipetting and read spectrophotometrically at OD600 using a BioTek Synergy plate reader. MICs were determined based on the antibiotic concentration required to achieve a 90% reduction in culture density relative to antibiotic-free controls.

[2] = system: sputum bacterial communities; experiment: Mucin co-culture of CF sputum bacterial communities, community growth by 16S rRNA gene qPCR; format: cell-based; details: for whether presence of at least one antibiotic-susceptible population predicts community failure in co-culture: sputum co-culture vs individual MICs of P. aeruginosa and anaerobes; for effect on co-operative community growth (16S rRNA gene copies relative to untreated control, FIG. 2C): sputum co-culture, mucin sole carbon source, 1% agarose, 72 h, one fixed concentration per antibiotic
Protocol: as §1
It was assessed whether co-operative community growth (see FIG. 1A) would affect antibiotic susceptibility. Specifically, we hypothesized that the sensitivity of the overall sputum bacterial community would be set by the least tolerant among P. aeruginosa and anaerobic subpopulations. To test this hypothesis, total 16S rRNA gene copy number was used to quantify community growth in response to each antibiotic relative to untreated controls (FIG. 2C).
Co-culture. Under anaerobic conditions, 200 μL of homogenized sputum was placed into one of eight tubes to which a pre-determined concentration of each antibiotic was added (aztreonam, 100 μg/mL; doxycycline, 6.5 μg/mL; levofloxacin, 6.5 μg/mL; metronidazole, 3.5 μg/mL; piperacillin/tazobactam, 6.5 μg/mL; tobramycin, 500 μg/mL; trimethoprim/sulfamethoxazole, 3.5 μg/mL). […] 200 μL of molten 2% low melting point agarose in PBS was added to each tube and homogenized by pipetting. Each mixture was then added to 0.5 mL Pyrex culture tubes forming a gel upon cooling. Upon removal from the anaerobic chamber, tubes were incubated at 37° C. for 72 h and frozen at −80° C.
DNA extraction. Agar plugs were removed from the culture tubes, transferred to a Matrix E Lysing Tubes (MP Biomedicals) and two volumes of lysis buffer were added. Tubes were vortexed on a bead beater for 2×30 s, followed by centrifugation at 9,500×g for 1 min. Supernatant was transferred to a new tube, incubated at 75° C. for 10 min and returned to room temperature. Lysozyme and RNAse A were then added to final concentrations of 0.2 mg/mL and 50 μg/mL, respectively, and incubated for 1 h at 37° C. […], of 10% SDS and proteinase K (2 mg/mL) were added and incubated overnight at 55° C.
DNA was extracted by adding one volume of phenol:chloroform:iosoamyl alcohol (25:24:1) and vortexing to emulsify. Samples were centrifuged at 21,000×g for 20 min and the upper aqueous layer transferred to a new tube. One volume of chloroform:IAA was then added followed by centrifugation at 21,000×g for 15 min. The upper layer was transferred to a new tube. 3M sodium acetate (pH 5.2) was added and mixed gently, followed by the addition of 1 volume of isopropanol and 3 μL GlycoBlue. Samples were centrifuged for 20 min at 21,000×g and supernatant removed. Pellets were washed using 80% ethanol, air dried for ˜30 min and resuspended in 10 mM Tris (pH 8) prior to storage at −80° C.
qPCR. Community growth was estimated by quantifying 16S rRNA gene copies from co-culture DNA.

[3] = system: anaerobic mucin-degrading bacteria; experiment: Anaerobic antibiotic susceptibility testing (MIC) of enrichment cultures from CF sputum in minimal mucin medium; format: cell-based; details: MMM, 37° C., 72 h
Protocol: as §1
Anaerobic enrichment. […]
Antibiotic susceptibility testing. […] Plates were resuspended by pipetting and read spectrophotometrically at OD600 using a BioTek Synergy plate reader. MICs were determined based on the antibiotic concentration required to achieve a 90% reduction in culture density relative to antibiotic-free controls.

[4] = system: P. aeruginosa and anaerobic bacteria capable of degrading mucins; details: cited from earlier work

| Compound | efficacy against P. aeruginosa isolates (MICs, FIG. 2A) [1] | whether presence of at least one antibiotic-susceptible population predicts community failure in co-culture [2] | effect on co-operative community growth (16S rRNA gene copies relative to untreated control, FIG. 2C) [2] | efficacy against anaerobic enrichments (MICs, FIG. 2B) [3] | further results |
| --- | --- | --- | --- | --- | --- |
| trimethoprim-sulfamethoxazole | some isolates were resistant | largely predictive of community failure | variable effects | – | community growth, patients 3 and 4 ([2]; patients 3 and 4, antibiotic predicted ineffective from individual MICs, T/S 3.5 μg/mL): surprisingly inhibited |
| NC[C@H]1O[C@H](O[C@H]2[C@H](O)[C@@H](O[C@H]3O[C@H](CO)[C@@H](O)[C@H](N)[C@H]3O)[C@H](N)C[C@@H]2N)[C@H](N)C[C@@H]1O [tobramycin] | broadly effective | – | striking effect on co-operative cultures | all anaerobic enrichments demonstrated resistance | – |
| CC1(C)S[C@@H]2[C@H](NC(=O)[C@H](N)c3ccccc3)C(=O)N2[C@H]1C(=O)O [ampicillin] | – | – | – | – | P. aeruginosa growth in co-culture with mucin-degrading anaerobes ([4]; co-culture on mucins as sole carbon source, inhibition of anaerobic subpopulation): constrained P. aeruginosa growth; resistance of P. aeruginosa determined by standard AST ([4]; standard AST, monoculture): high intrinsic resistance |
| Cc1ncc([N+](=O)[O-])n1CCO [metronidazole] | ineffective | – | striking effect on co-operative cultures | – | sputum community growth, patient 5 ([2]; patient 5, both subpopulations independently resistant, metronidazole 3.5 μg/mL): robust |
| piperacillin-tazobactam | some isolates were resistant | largely predictive of community failure | – | – | – |
| C[C@H]1[C@H](NC(=O)/C(=N\OC(C)(C)C(=O)O)c2csc(N)n2)C(=O)N1S(=O)(=O)O [aztreonam] | some isolates were resistant | largely predictive of community failure | – | variable efficacy | growth of two aztreonam-resistant P. aeruginosa isolates in co-culture ([2]; co-culture with aztreonam-susceptible anaerobic mutualists, aztreonam 100 μg/mL): restricted in co-culture |
